According to US20160102058A1, “FLUORO-PERHEXILINE COMPOUNDS AND THEIR THERAPEUTIC USE” (THE UNIVERSITY COURT OF THE UNIVERSITY OF ABERDEEN, priority 2013, published 2016):
Read-outs that look alike come from different tables or passages of the source.

What was measured:
[1] = Human liver microsomal (HLM) stability assay; assay type: in vitro ADME; settings: for microsomal CLint at 3 μM / half-life at 3 μM: both sexes, pH 7.4, human liver microsomes, 3 μM test compound; for microsomal CLint at 3 μM: read-out: CLint (μL/min/mg protein) HLM; for half-life at 3 μM: read-out: T½ (min) HLM; for metabolic stability compared with perhexiline (in words): human and rat liver microsomes, versus perhexiline
Experimental: (§1) The metabolic stability of fluoroperhexiline derivatives was measured by determination of the rate of compound disappearance when incubated in the presence of both human and rat liver microsomes. Liver microsomes are prepared from the endoplasmic reticulum of hepatocytes and are the primary source of the most important enzymes (cytochrome P450) involved in drug metabolism. Study of drug stability in the presence of liver microsomes is accepted as a valuable model permitting rapid prediction of in vivo drug stability.
(§2) Human and rat liver microsomes were obtained from a commercial source. Test compounds (3 μM) were incubated with pooled liver microsomes (male and female). Samples were incubated for a 45 minute period and removed at 5 time points and test compounds were analysed by LC-MS/MS.
(§3) Microsomes (final protein concentration 0.5 mg/mL), 0.1 M phosphate buffer pH 7.4, and test compound (final concentration 3 μM; diluted from 10 mM stock solution to give a final DMSO concentration of 0.25%) were incubated at 37° C. prior to the addition of NADPH (final concentration 1 mM) to initiate the reaction. The final incubation volume was 25 μL. A control incubation was included for each compound tested, where 0.1 M phosphate buffer pH 7.4 was added instead of NADPH. The control compounds testosterone and 7-hydroxycoumarin were included in each experiment and all incubations were performed singularly for each compound.
(§4) Each compound was incubated for 0, 5, 15, 30, and 45 minutes. The control (minus NADPH) was incubated for 45 minutes only. The reactions were stopped by the addition of 50 μL methanol containing internal standard at the appropriate time points. The incubation plates were centrifuged at 2500 rpm for 20 minutes at 4° C. to precipitate the protein.
(§5) Following protein precipitation, the sample supernatants were combined in cassettes of up to 4 compounds and analysed using standard LC-MS/MS conditions.
(§6) From a plot of the natural logarithm of the peak area ratio (i.e., the ratio of compound peak area:internal standard peak area) against time, the gradient of the line was determined. Subsequently, half-life and intrinsic clearance were calculated using the equations below:
(§7) Eliminated Rate Constant (k)=(−Gradient).
(§8) Half-Life (t1/2) (min)=0.063/k.
(§9) Intrinsic Clearance (CLint) […]=(V×0.693)/t1/2. • wherein V=Incubation Volume (μL/mg microsomal protein).

[2] = Rat liver microsomal (RLM) stability assay; assay type: in vitro ADME; settings: both sexes, pH 7.4, rat liver microsomes, 3 μM test compound; for microsomal CLint at 3 μM: read-out: CLint (μL/min/mg protein) RLM; for half-life at 3 μM: read-out: T½ (min) RLM
Experimental: as §1, §2, §3, §4, §5, §6, §7, §8, §9

[3] = Mouse oral pharmacokinetics, plasma and myocardium; assay type: in vivo, male BALB/c mice; settings: for AUC(0-t) / Cmax: male, BALB/c, 10 mg/kg oral gavage
Experimental: (§10) Absorption, distribution and metabolic stability were studied using an in vivo pharmacokinetics assay. Drug levels were assessed using LC/MS-MS.
(§11) Healthy male BALB/c mice (8-12 weeks old) weighing between 25 and 35 g, or Sprague-Dawley rats weighing between 250 and 300 g were procured from In-vivo Bioscience Bangalore, India. Three mice were housed in each cage. Temperature and humidity were maintained at 22±3° C. and 40-70%, respectively and illumination was controlled to give a sequence of 12 h light and 12 h dark cycle. Temperature and humidity were recorded by auto-controlled data logger system. All of the animals were provided laboratory rodent diet (Vetcare India Pvt. Ltd, Bengaluru) after the drug administration. Reverse osmosis water treated with ultraviolet light was provided ad libitum.
FPER-001 and perhexiline samples were freshly prepared each day before administration. The weighed quantity (11.19 mg) of FPER-001 for p.o. dosing was added into a mortar. […] The formulation was sonicated for 2 min to obtain a homogenous suspension. Thirty mice were administered with the oral formulation at 10 mg/kg dose through oral gavage using a 22-G oral feeding needle. The dosing volume administered was 10 mL/kg.
(§12) Blood samples (approximately 60 μL) were collected from retro-orbital plexus of three mice at each time point (1, 4, 8, 24, 48, 72, 96, 120, 144, and 168 h) or of three rats at each time point (0.25, 0.5, 1, 2, 4, 8, 24, 25, 48, 72 and 73 h). Samples were collected into labeled micro-tubes, containing K2EDTA solution (20% K2EDTA solution) as an anticoagulant. Plasma was immediately harvested from the blood by centrifugation at 4000 rpm for 10 min at 4±2° C. and stored below −70° C. until bioanalysis. Immediately after collection of blood, myocardium samples were collected from each mouse at 1, 4, 8, 24, 48, 72, 96, 120, 144 and 168 h, or from each rat at 1, 8, 25 and 73 h. Myocardium samples were homogenized using ice-cold phosphate buffer saline (pH 7.4) and homogenates were stored below −70° C. until analysis. Total homogenate volume was five times the myocardium weight in mice, and three times the myocardium weight in rats.
(§13) The extraction procedures for plasma/myocardium samples and the spiked plasma calibration standards/quality control samples were identical.
(§14) A 25 μL of study sample or spiked calibration standard was added to individual pre-labeled micro-centrifuge tubes followed by 100 μL of internal standard prepared in acetonitrile (Glipizide 500 ng/mL) was added except for the blank, where 100 μL of acetonitrile was added. Samples were vortexed for 5 min. Samples were centrifuged for 10 min at a speed of 4000 rpm at 4° C. Following centrifugation, 100 μL of clear supernatant was transferred in 96-well plates and analysed using LC-MS/MS.
(§15) HPLC and MS conditions were as follows:
(§16) Non-Compartmental-Analysis tool of Phoenix WinNonlin® (Version 6.3) was used to assess the pharmacokinetic parameters. Peak plasma concentrations (Cmax) and time for the peak plasma concentrations (Tmax) were the observed values. The areas under the concentration time curve (AUClast and AUCinf) were calculated by linear trapezoidal rule. The terminal elimination rate constant (ke) was determined by regression analysis of the linear terminal portion of the log plasma concentration-time curve.
The oral absorption, distribution, and stability of FPER-001 and perhexiline were compared in the mouse model as described above. Maximum concentration (Cmax) and area under the curve (AUC) were investigated for both plasma and myocardia in male BALB/c mice, following 10 mg/kg oral gavage of FPER-001 or perhexiline, using an LC/MS/MS detection system as described above.

[4] = Rat oral pharmacokinetics, plasma and myocardium; assay type: in vivo, male Sprague-Dawley rats; settings: for concentration at 1 h / concentration at 8 h: male, Sprague-Dawley, 10 mg/kg oral
Experimental: as §10, §11
FPER-001 and perhexiline samples were freshly prepared each day before administration. The weighed quantity (36.5 mg) of FPER-001 for p.o. dosing was added into a mortar. […] The formulation was sonicated for 2 min to obtain a homogenous suspension.
as §12, §13, §14, §15, §16
The oral absorption, distribution, and stability of FPER-001 and perhexiline were compared in the rat model as described above. Concentration was investigated for both plasma and myocardia in male Sprague-Dawley rats using an LC/MS/MS detection system as described above.

[5] = myocardium, read-out: AUC 0-24, myocardium
[6] = myocardium, read-out: Cmax, myocardium
[7] = plasma, read-out: AUC 0-24, plasma
[8] = myocardium, 1 h, read-out: Conc., myocardium, 1 h
[9] = myocardium, 8 h, read-out: Conc., myocardium, 8 h
[10] = plasma, 1 h, read-out: Conc., plasma, 1 h
[11] = plasma, 8 h, read-out: Conc., plasma, 8 h

microsomal CLint at 3 μM [1] [µL/min/mg] | half-life at 3 μM [1] [min] | microsomal CLint at 3 μM [2] [µL/min/mg] | half-life at 3 μM [2] [min] | Structure (SMILES) | metabolic stability compared with perhexiline (in words) [1] | AUC(0-t) [3, 5] [ng·h/mL] | Cmax [3, 6] [ng/mL] | AUC(0-t) [3, 7] [ng·h/mL] | Cmax ([3]; plasma, read-out: Cmax, plasma) [ng/mL] | concentration at 1 h [4, 8] [ng/mL] | concentration at 8 h [4, 9] [ng/mL] | concentration at 1 h [4, 10] [ng/mL] | concentration at 8 h [4, 11] [ng/mL] | further results
2.6 | 525 | 19 | 72 | FC1(F)CCC(C(CC2CCCCN2)C2CCCCC2)CC1 (mixture of isomers) [FPER-001, 2-(2-Cyclohexyl-2-(4,4-difluorocyclohexyl)ethyl)piperidine] | substantial increase in metabolic stability | 32400 | 1680 | 3730 | 347 | 5910 | 1290 | 386 | 179 | drug exposure versus perhexiline, myocardium ([3]; oral dosing, myocardium): ~18 fold; maximum drug concentration versus perhexiline, myocardium ([3]; oral dosing, myocardium): ~2.5 fold; drug exposure versus perhexiline, plasma ([3]; oral dosing, plasma): ~11 fold; maximum drug concentration versus perhexiline, plasma ([3]; oral dosing, plasma): ~3 fold; drug concentration versus perhexiline, myocardium, 1 h ([4]; oral dosing, myocardium, 1 h): ~3 fold; drug concentration versus perhexiline, myocardium, 8 h ([4]; oral dosing, myocardium, 8 h): ~3.5 fold; drug concentration versus perhexiline, plasma, 1 h ([4]; oral dosing, plasma, 1 h): ~4 fold; drug concentration versus perhexiline, plasma, 8 h ([4]; oral dosing, plasma, 8 h): ~6 fold
21.3 | 65 | 129 | 11 | FC1CCC(C(CC2CCCCN2)C2CCCCC2)CC1 (mixture of isomers) [FPER-003, 2-(2-Cyclohexyl-2-(4-fluorocyclohexyl)ethyl)piperidine] | substantial decrease in stability |  |  |  |  |  |  |  |  | 

Structure (SMILES) | microsomal CLint at 3 μM [1] [µL/min/mg] | half-life at 3 μM [1] [min] | microsomal CLint at 3 μM [2] [µL/min/mg] | half-life at 3 μM [2] [min] | metabolic stability compared with perhexiline (in words) [1] | AUC(0-t) [3, 5] [ng·h/mL] | Cmax [3, 6] [ng/mL] | AUC(0-t) [3, 7] [ng·h/mL] | Cmax ([3]; plasma, read-out: Cmax, plasma) [ng/mL] | concentration at 1 h [4, 8] [ng/mL] | concentration at 8 h [4, 9] [ng/mL] | concentration at 1 h [4, 10] [ng/mL] | concentration at 8 h [4, 11] [ng/mL] | further results
C1CCC(C(CC2CCCCN2)C2CCCCC2)CC1 (centres unmarked) [Perhexiline, 2-(2,2-dicyclohexylethyl)piperidine] | 13.8 | 100 | 65 | 21 |  | 1830 | 665 | 350 | 116 | 1900 | 361 | 99.9 | 31.4 | 
